This note sets out measurements from patent publication US20230104936A1, “TRPML MODULATORS” (Casma Therapeutics, Inc., priority 2019, published 2023).

The assay concerns TFEB. As to the kind of experiment: TFEB nuclear translocation assay, HeLa wt cells. It counts as cell-based. To be noted: Homo sapiens, HeLa, 2 h, 2 hrs compound treatment, Table 1 does not say HeLa wt or TRPML1 KO. The method, boiled down:
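HeLa wt cells were treated with compound for 2 hrs at 37° C, then fixed in 4% PFA and immunostained for TFEB with an Alexa 488 secondary and Hoechst nuclear counterstain. Automated epifluorescence imaging at ×20 gave the ratio of nuclear TFEB intensity to a perinuclear ring region, from which AC50 was derived.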
Turning to `COCC1(C)CCN(c2ccccc2NS(=O)(=O)c2cccc(C)c2)CC1` [Compound A-618, N-{2-[4-(methoxymethyl)-4-methylpiperidin-1-yl]phenyl}-3-methylbenzene-1-sulfonamide], the AC50 lay in the range of 2.01 to 8 µM.
The same measure for `COCC1(C)CCN(c2ccccc2NS(=O)(=O)c2cc(C3OCCO3)cs2)CC1` [Compound A-619, 4-(1,3-dioxolan-2-yl)-N-{2-[4-(methoxymethyl)-4-methylpiperidin-1-yl]phenyl}thiophene-2-sulfonamide]: 2.01 to 8 µM; for `COCC1(C)CCN(c2ccccc2NS(=O)(=O)c2ccc(C(F)F)cc2)CC1` [Compound A-620, 4-(difluoromethyl)-N-{2-[4-(methoxymethyl)-4-methylpiperidin-1-yl]phenyl}benzene-1-sulfonamide]: no more than 2 µM.
For `COCC1(C)CCN(c2ccccc2NS(=O)(=O)c2ccc(C3CC3)cc2)CC1` [Compound A-621, 4-cyclopropyl-N-{2-[4-(methoxymethyl)-4-methylpiperidin-1-yl]phenyl}benzene-1-sulfonamide], the AC50 was no more than 2 µM.
`COCC1(C)CCN(c2ccccc2NS(=O)(=O)c2ccc(OC(F)(F)F)cc2)CC1` [Compound A-622, N-{2-[4-(methoxymethyl)-4-methylpiperidin-1-yl]phenyl}-4-(trifluoromethoxy)benzene-1-sulfonamide] yielded an AC50 of 2.01 to 8 µM.
The same measure for `COCC1(C)CCN(c2ccccc2NS(=O)(=O)c2ccc(Br)cc2)CC1` [Compound A-623, 4-bromo-N-{2-[4-(methoxymethyl)-4-methylpiperidin-1-yl]phenyl}benzene-1-sulfonamide]: 2.01 to 8 µM.
The same measure for `COCC1(C)CCN(c2ccccc2NS(=O)(=O)C2=Cc3ccccc3OCC2)CC1` [Compound A-624, N-{2-[4-(methoxymethyl)-4-methylpiperidin-1-yl]phenyl}-2,3-dihydro-1-benzoxepine-4-sulfonamide]: 2.01 to 8 µM; for `COCC1(C)CCN(c2ccccc2NS(=O)(=O)c2ccc3c(c2)COCC3)CC1` [Compound A-625, N-{2-[4-(methoxymethyl)-4-methylpiperidin-1-yl]phenyl}-3,4-dihydro-1H-2-benzopyran-7-sulfonamide]: no more than 2 µM.
The same measure for `CN(C)S(=O)(=O)c1ccc(S(=O)(=O)Nc2ccccc2N2CCN(C3CCCCC3(F)F)CC2)cc1` (stereo not shown) [Compound A-626, N4-{2-[4-(2,2-difluorocyclohexyl)piperazin-1-yl]phenyl}-N1,N1-dimethylbenzene-1,4-disulfonamide]: no more than 2 µM; for `COCC1(C)CCN(c2ccccc2NS(=O)(=O)Cc2cccc(C(C)(C)C)c2)CC1` [Compound A-627, 1-(3-tert-butylphenyl)-N-{2-[4-(methoxymethyl)-4-methylpiperidin-1-yl]phenyl}methanesulfonamide]: 2.01 to 8 µM; for `Cc1ccc(N2CCOCC2)c(NS(=O)(=O)Cc2ccccc2)c1` [Compound A-628, N-[5-methyl-2-(morpholin-4-yl)phenyl]-1-phenylmethanesulfonamide]: 2.01 to 8 µM.
The compound `Cc1ccc(N2CCOCC2)c(NS(=O)(=O)Cc2ccc3c(c2)COCC3)c1` [Compound A-629, 1-(3,4-dihydro-1H-2-benzopyran-7-yl)-N-[5-methyl-2-(morpholin-4-yl)phenyl]methanesulfonamide] showed an AC50 of 2.01 to 8 µM.
Compound `COCC1(C)CCN(c2ccc(OC)cc2NS(=O)(=O)c2ccc3c(c2)CCC3)CC1` [Compound A-630, N-{5-methoxy-2-[4-(methoxymethyl)-4-methylpiperidin-1-yl]phenyl}-2,3-dihydro-1H-indene-5-sulfonamide] registered an AC50 of no more than 2 µM.
Next, `CCOCCC1CCN(c2ccccc2NS(=O)(=O)c2ccc3c(c2)CC(C)(C)O3)CC1` [Compound A-631, N-{2-[4-(2-ethoxyethyl)piperidin-1-yl]phenyl}-2,2-dimethyl-2,3-dihydro-1-benzofuran-5-sulfonamide]: no more than 2 µM; `CC1(C)Cc2cc(S(=O)(=O)Nc3ccccc3N3CCCC4(CCCOC4)C3)ccc2O1` (stereo not shown) [Compound A-632, 2,2-dimethyl-N-(2-{2-oxa-8-azaspiro[5.5]undecan-8-yl}phenyl)-2,3-dihydro-1-benzofuran-5-sulfonamide]: no more than 2 µM.
Next, `COCC1(C)CCN(c2ccccc2NS(=O)(=O)c2cccc(C(C)(C)OC)c2)CC1` [Compound A-633, N-{2-[4-(methoxymethyl)-4-methylpiperidin-1-yl]phenyl}-3-(2-methoxypropan-2-yl)benzene-1-sulfonamide]: 2.01 to 8 µM; `COC(C)(C)c1cccc(S(=O)(=O)Nc2ccccc2N2CCC3(CC2)COC(C)(C)C3)c1` [Compound A-634, N-(2-{3,3-dimethyl-2-oxa-8-azaspiro[4.5]decan-8-yl}phenyl)-3-(2-methoxypropan-2-yl)benzene-1-sulfonamide]: 2.01 to 8 µM.
Next, `CC1(C)CC2(CCN(c3ccccc3NS(=O)(=O)c3ccc4c(c3)CC(C)(C)O4)CC2)CO1` [Compound A-635, N-(2-{3,3-dimethyl-2-oxa-8-azaspiro[4.5]decan-8-yl}phenyl)-2,2-dimethyl-2,3-dihydro-1-benzofuran-5-sulfonamide]: 2.01 to 8 µM; `CC1(C)Cc2cc(S(=O)(=O)Nc3ccccc3N3CCC(C(C)(F)F)CC3)ccc2O1` [Compound A-636, N-{2-[4-(1,1-difluoroethyl)piperidin-1-yl]phenyl}-2,2-dimethyl-2,3-dihydro-1-benzofuran-5-sulfonamide]: no more than 2 µM.
With `O=S(=O)(CCO)c1ccc(S(=O)(=O)Nc2ccccc2N2CCC(c3ccc(Cl)cc3F)CC2)cc1` [Compound A-637, N-{2-[4-(4-chloro-2-fluorophenyl)piperidin-1-yl]phenyl}-4-(2-hydroxyethanesulfonyl)benzene-1-sulfonamide], the AC50 was no less than 10 µM.
Consider `CC1(C)CC2(CCN(c3ccccc3NS(=O)(=O)c3ccc4c(c3)CC(C)(C)C4=O)CC2)CO1` [Compound A-638, N-(2-{3,3-dimethyl-2-oxa-8-azaspiro[4.5]decan-8-yl}phenyl)-2,2-dimethyl-1-oxo-2,3-dihydro-1H-indene-5-sulfonamide], for which the AC50 was 2.01 to 8 µM.
Take `COCC1(C)CCN(c2ccccc2NS(=O)(=O)c2ccc3c(c2)CC(C)(C)C3=O)CC1` [Compound A-639, N-{2-[4-(methoxymethyl)-4-methylpiperidin-1-yl]phenyl}-2,2-dimethyl-1-oxo-2,3-dihydro-1H-indene-5-sulfonamide]: the AC50 is no less than 10 µM.
The same measure for `CC1(C)Cc2cc(S(=O)(=O)Nc3ccccc3N3CCCC34CCCOC4)ccc2O1` (stereo not shown) [Compound A-640, 2,2-dimethyl-N-(2-{7-oxa-1-azaspiro[4.5]decan-1-yl}phenyl)-2,3-dihydro-1-benzofuran-5-sulfonamide]: 2.01 to 8 µM; for `COCC1(C)CCN(c2ccccc2NS(=O)(=O)c2ccc(C(=O)C(C)C)cc2)CC1` [Compound A-641, N-{2-[4-(methoxymethyl)-4-methylpiperidin-1-yl]phenyl}-4-(2-methylpropanoyl)benzene-1-sulfonamide]: 8.01 to 9.99 µM.
The same measure for `COCC1(C)CCN(c2ccccc2NS(=O)(=O)Cc2ccc(C)c(C)c2)CC1` [Compound A-642, 1-(3,4-dimethylphenyl)-N-{2-[4-(methoxymethyl)-4-methylpiperidin-1-yl]phenyl}methanesulfonamide]: no more than 2 µM; for `COCC1(C)CCN(c2ccccc2NS(=O)(=O)c2cccc(C3CC3)c2)CC1` [Compound A-643, 3-cyclopropyl-N-{2-[4-(methoxymethyl)-4-methylpiperidin-1-yl]phenyl}benzene-1-sulfonamide]: no more than 2 µM.
The same measure for `COCC1(C)CCN(c2ccccc2NS(=O)(=O)c2ccc3c(c2)CCC(C(F)F)O3)CC1` (stereo not shown) [Compound A-644, 2-(difluoromethyl)-N-{2-[4-(methoxymethyl)-4-methylpiperidin-1-yl]phenyl}-3,4-dihydro-2H-1-benzopyran-6-sulfonamide]: 2.01 to 8 µM; for `COCC1(C)CCN(c2ccccc2NS(=O)(=O)c2ccc3c(c2)COC3)CC1` [Compound A-645, N-{2-[4-(methoxymethyl)-4-methylpiperidin-1-yl]phenyl}-1,3-dihydro-2-benzofuran-5-sulfonamide]: 8.01 to 9.99 µM; for `COCC1(C)CCN(c2ccccc2NS(=O)(=O)Cc2ccc(C)c(F)c2)CC1` [Compound A-646, 1-(3-fluoro-4-methylphenyl)-N-{2-[4-(methoxymethyl)-4-methylpiperidin-1-yl]phenyl}methanesulfonamide]: 2.01 to 8 µM.
Take `COCC1(C)CCN(c2ccccc2NS(=O)(=O)Cc2ccc(C(F)F)cc2)CC1` [Compound A-647, 1-[4-(difluoromethyl)phenyl]-N-{2-[4-(methoxymethyl)-4-methylpiperidin-1-yl]phenyl}methanesulfonamide]: the AC50 was in the range of 8.01 to 9.99 µM.
The compound `COCC1(C)CCN(c2ccccc2NS(=O)(=O)Cc2cc(C)ccc2F)CC1` [Compound A-648, 1-(2-fluoro-5-methylphenyl)-N-{2-[4-(methoxymethyl)-4-methylpiperidin-1-yl]phenyl}methanesulfonamide] gave an AC50 of no more than 2 µM.
Next, `COCC1(C)CCN(c2ccccc2NS(=O)(=O)C2(c3ccccc3)CC2)CC1` [Compound A-649, N-{2-[4-(methoxymethyl)-4-methylpiperidin-1-yl]phenyl}-1-phenylcyclopropane-1-sulfonamide]: 2.01 to 8 µM; `COCC1(C)CCN(c2ccccc2NS(=O)(=O)c2ccc(C3CC3(F)F)cc2)CC1` (stereo not shown) [Compound A-650, 4-(2,2-difluorocyclopropyl)-N-{2-[4-(methoxymethyl)-4-methylpiperidin-1-yl]phenyl}benzene-1-sulfonamide]: no more than 2 µM.
Consider `COCC1(C)CCN(c2ccccc2NS(=O)(=O)c2cccc(C3CC3(F)F)c2)CC1` (stereo not shown) [Compound A-651, 3-(2,2-difluorocyclopropyl)-N-{2-[4-(methoxymethyl)-4-methylpiperidin-1-yl]phenyl}benzene-1-sulfonamide], for which the AC50 was no more than 2 µM.
